These results are taken from the supplement of paper PMC10307832.

Common to all, as to assay: relative viability (nuclei count vs DMSO), 5 days (fraction); higher = more cells survive
Compound in assay [1]: CN1CCN(CC1)C2=CC(=C(C=C2)NC3=NC=C4C(=N3)N(C5=CC=CC=C5C(=O)N4C)C)OC [XMD8-85] + CC(C)C[C@H](NC(=O)[C@H](Cc1ccccc1)NC(=O)c1cnccn1)B(O)O [Bortezomib] (partner 0.002 µM)
A digest of the protocol: (§1)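 Dosing by pin tool came one day after lung cancer cell lines were seeded in 1536-well plates, using either one drug or a fixed anchor-drug dose plus five library-drug doses (not always all listed) in √10 steps. After 5 days, nuclei were counted on 4× images. Relative viability is treated-well nuclei count divided by vehicle-well nuclei count, and values are medians of duplicate plates.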

Compound in assay [2]: O=C(O)C(Cc1ccccc1[N+](=O)[O-])=NNc1nc(-c2ccc(Cl)c(Cl)c2)cs1 (mixture of isomers) [4EGI-1] + C[C@@H](Oc1cc(-c2cnn(C3CCNCC3)c2)cnc1N)c1c(Cl)ccc(F)c1Cl [Crizotinib] (partner 1 µM)
A digest of the protocol:
as §1

Compound in assay [3]: O=C(O)C(Cc1ccccc1[N+](=O)[O-])=NNc1nc(-c2ccc(Cl)c(Cl)c2)cs1 (mixture of isomers) [4EGI-1] + Nc1nc2[nH]cc(CCc3ccc(C(=O)N[C@@H](CCC(=O)O)C(=O)O)cc3)c2c(=O)[nH]1 [Pemetrexed] (partner 0.2 µM)
Summed up: as §1

Compound in assay [4]: CN1CCN(CC1)C2=CC(=C(C=C2)NC3=NC=C4C(=N3)N(C5=CC=CC=C5C(=O)N4C)C)OC [XMD8-85] + CS(=O)(=O)N1CCN(Cc2cc3nc(-c4cccc5[nH]ncc45)nc(N4CCOCC4)c3s2)CC1 [Pictilisib] (partner 1 µM)
Summed up:
as §1

NCI-H1792: the relative viability in assay [1] (first compound 0.08 µM) worked out at 0.985; in assay [1] (first compound 0.253 µM), 0.776; in assay [1] (first compound 2.53 µM), 0.929; in assay [1] (first compound 8 µM) it was 0.838; in assay [2] (first compound 0.5 µM), 0.963; in assay [2] (first compound 1.581 µM), 0.772. The relative viability in assay [2] (first compound 5 µM) stood at 0.963; in assay [2] (first compound 15.81 µM), 0.842; in assay [2] (first compound 50 µM), 0.823; in assay [3] (first compound 0.5 µM), 1.05; in assay [3] (first compound 1.581 µM), 0.952; in assay [3] (first compound 5 µM) it was 0.833. In addition, the relative viability in assay [3] (first compound 15.81 µM) was 0.841; in assay [3] (first compound 50 µM) it was 0.463; in assay [4] (first compound 0.08 µM), 0.251; in assay [4] (first compound 0.253 µM), 0.226; in assay [4] (first compound 2.53 µM), 0.276; in assay [4] (first compound 8 µM), 0.317.
